Data from US9149035B2, “Antimicrobial composition” (CONVATEC TECHNOLOGIES, INC., priority 2005, dated 2015).
Where two headings read alike, the source gives them in different places.

What was measured:
Ps aeruginosa [1] = conditions: poloxamer gel (biofilm state) vs without
[2] = tested on: Seven antibiotic resistant microorganisms
Ps aeruginosa [3] = test: Corrected zone of inhibition of hydrated wound dressings on Poloxamer gel with MHB (biofilm bacteria); assay type: cell-based; conditions: bacteria grown in the biofilm state (poloxamer gel)
From the text: The antimicrobial dressings used in this study were ActicoatTM (Smith and Nephew) and AQUACEL® Ag Hydrofiber® (ConvaTec). Acticoat is a nanocrystalline silver antimicrobial barrier dressing which consists of a rayon/polyester non-woven inner core laminated between two layers of silver-coated high density polyethylene mesh (HDPE). The layers are held together with ultrasound […] comprised of sodium carboxymethylcellulose Hydrofiber® and ionic silver. The silver cations in AQUACEL® Ag are associated with the individual highly absorbent anionic carboxymethylcellulose fibres of the Hydrofiber® dressing. AQUACEL® Hydrofiber® dressing (without silver) was also used as a control. […] The mean dressing size was then subtracted from the mean zone of inhibition to determine the corrected zone of inhibition (CZOI). A CZOI test allows for any inherent variability in the shape and size of zones created by the silver dressings which may change in dimension following hydration.

[4] = tested on: Pseudomonas aeruginosa, Serratia marcescens, vancomycin resistant Enterococcus (VRE) and methicillin resistant Staphylococcus aureus (MRSA); conditions: EDTA 0.1-40% weight by volume; planktonic and biofilm state
C. kruzei = conditions: poloxamer gel (biofilm state) vs without

O=C(O)CN(CCN(CC(=O)O)CC(=O)O)CC(=O)O [EDTA, Ethylenediaminetetra-acetic acid]
Zones of inhibition with poloxamer compared with without (Ps aeruginosa [1]): larger zones
Zones of inhibition ([2]; 0.1% EDTA, any organism studied): no zones of inhibition were evident
Zones of inhibition ([2]; 40% EDTA, all organisms tested): evident
Zones of inhibition in the presence of poloxamer compared with planktonic ([2]; poloxamer gel (biofilm state) vs without): slightly smaller
Effect of EDTA on the effects of ionic silver (Ps aeruginosa [3]): enhances
Zones of inhibition (Serratia marcescens; 5% EDTA): no zones
Zones of inhibition (Serratia marcescens; 10% EDTA): no zones
Killing of microorganisms [4]: effective in killing
Zones of inhibition with poloxamer compared with without (C. kruzei): larger zones
